Measurements published in ChEMBL document CHEMBL3259786, “Quinazolines: new horizons in anticonvulsant therapy” (Eur J Med Chem, 2014).

Assays:
[1] = system: Mus musculus; assay: Anticonvulsant activity in ip dosed mouse by MES test; format: functional
[2] = Toxicity in ip dosed mouse; format: organism-based; conditions: in vivo
[3] = Acute toxicity in po dosed mouse; format: organism-based; conditions: in vivo
[4] = system: Mus musculus; assay: Anticonvulsant activity in po dosed albino mouse measured after 60 mins by MES test; format: functional
[5] = organism: Mus musculus; assay: Anticonvulsant activity in mouse by MES test; format: functional

Structure (SMILES)	Activity [1] [%]	LD50 [2] [mg/kg]	LD50 [3] [mg/kg]	PD50 [4] [µmol/kg]	ED50 [5] [mg/kg]
CCSc1nc(=O)c2ccccc2[nH]1	60	1000	–	–	–
O=C(CNc1ccc(Cl)cc1)Nn1c(COc2ccc(Cl)cc2Cl)nc2ccccc2c1=O	–	–	> 3000	200.53	–
Nc1nnc2c3ccccc3nc(-c3ccccc3Br)n12	–	–	–	–	27.4
c1ccc(CN(Cc2ccccc2)c2nc(N(Cc3ccccc3)Cc3ccccc3)c3ccccc3n2)cc1	50	400	–	–	–
